System: NOMO1
Assay: cell viability relative to DMSO control; higher = less cytotoxic
Settings: 48 h
Method in brief: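 Viability, reported as a per-plate percentage of DMSO wells with cell-free wells as background, came from CellTiter-Glo One luminescence. Reading took place after 48 h at 37°C. Before that, NOMO1 or SEM (500 cells/well) or P12-Ichikawa (1000 cells/well) leukemia cells, adapted for at least four passages in each medium, were seeded in 1536-well plates (5 μl) and pin-dosed with library compounds in DMSO, 47 μM to 0.79 nM over 11 threefold points.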

[1] = HPLM + 10% dialyzed FBS, 0.000781 µM
[2] = HPLM + 10% dialyzed FBS, 0.00234 µM
[3] = HPLM + 10% dialyzed FBS, 0.00702 µM
[4] = HPLM + 10% dialyzed FBS, 0.0211 µM
[5] = HPLM + 10% dialyzed FBS, 0.0632 µM
[6] = HPLM + 10% dialyzed FBS, 0.19 µM
[7] = HPLM + 10% dialyzed FBS, 0.569 µM
[8] = HPLM + 10% dialyzed FBS, 1.71 µM
[9] = HPLM + 10% dialyzed FBS, 5.12 µM
[10] = HPLM + 10% dialyzed FBS, 15.4 µM
[11] = HPLM + 10% dialyzed FBS, 46.1 µM
[12] = RPMI 5 mM glucose + 10% FBS, 0.000781 µM
[13] = RPMI 5 mM glucose + 10% FBS, 0.00234 µM
[14] = RPMI 5 mM glucose + 10% FBS, 0.00702 µM
[15] = RPMI 5 mM glucose + 10% FBS, 0.0211 µM
[16] = RPMI 5 mM glucose + 10% FBS, 0.0632 µM
[17] = RPMI 5 mM glucose + 10% FBS, 0.19 µM
[18] = RPMI 5 mM glucose + 10% FBS, 0.569 µM
[19] = RPMI 5 mM glucose + 10% FBS, 1.71 µM
[20] = RPMI 5 mM glucose + 10% FBS, 5.12 µM
[21] = RPMI 5 mM glucose + 10% FBS, 15.4 µM
[22] = RPMI 5 mM glucose + 10% FBS, 46.1 µM
[23] = RPMI 5 mM glucose + 10% dialyzed FBS, 0.000781 µM
[24] = RPMI 5 mM glucose + 10% dialyzed FBS, 0.00234 µM
[25] = RPMI 5 mM glucose + 10% dialyzed FBS, 0.00702 µM
[26] = RPMI 5 mM glucose + 10% dialyzed FBS, 0.0211 µM
[27] = RPMI 5 mM glucose + 10% dialyzed FBS, 0.0632 µM
[28] = RPMI 5 mM glucose + 10% dialyzed FBS, 0.19 µM
[29] = RPMI 5 mM glucose + 10% dialyzed FBS, 0.569 µM
[30] = RPMI 5 mM glucose + 10% dialyzed FBS, 1.71 µM
[31] = RPMI 5 mM glucose + 10% dialyzed FBS, 5.12 µM
[32] = RPMI 5 mM glucose + 10% dialyzed FBS, 15.4 µM
[33] = RPMI 5 mM glucose + 10% dialyzed FBS, 46.1 µM

| Compound | cell viability [1] [%] | cell viability [2] [%] | cell viability [3] [%] | cell viability [4] [%] | cell viability [5] [%] | cell viability [6] [%] | cell viability [7] [%] | cell viability [8] [%] | cell viability [9] [%] | cell viability [10] [%] | cell viability [11] [%] | cell viability [12] [%] | cell viability [13] [%] | cell viability [14] [%] | cell viability [15] [%] | cell viability [16] [%] | cell viability [17] [%] | cell viability [18] [%] | cell viability [19] [%] | cell viability [20] [%] | cell viability [21] [%] | cell viability [22] [%] | cell viability [23] [%] | cell viability [24] [%] | cell viability [25] [%] | cell viability [26] [%] | cell viability [27] [%] | cell viability [28] [%] | cell viability [29] [%] | cell viability [30] [%] | cell viability [31] [%] | cell viability [32] [%] | cell viability [33] [%] |
| --- | --- | --- | --- | --- | --- | --- | --- | --- | --- | --- | --- | --- | --- | --- | --- | --- | --- | --- | --- | --- | --- | --- | --- | --- | --- | --- | --- | --- | --- | --- | --- | --- | --- |
| OCC(O)C(O)C(O)CO (configuration not stated) | 98.8 | 88.8 | 87.7 | 104 | 81.7 | 92.4 | 99 | 86.3 | 96.7 | 70.2 | 80 | 84 | 99.3 | 92.6 | 84.4 | 89.9 | 87.7 | 84.9 | 85.8 | 82 | 82.1 | 80 | 77.9 | 86.8 | 112 | 96.2 | 106 | 106 | 103 | 84.9 | 89 | 72.5 | 94.6 |
| COc1ccc2c(c1)[C@]13CCCCC1C(C2)N(C)CC3 (some centres not stated) |  |  |  |  |  |  |  |  |  |  |  | 104 | 117 | 107 | 121 | 118 | 108 | 109 | 111 | 121 | 90.3 | 101 | 111 | 114 | 116 | 119 | 135 | 130 | 114 | 132 | 115 | 118 | 84.2 |
| COC(=O)C\1=C(C)\N\C(=C(/C1C2=CC=CC3=NON=C23)C(=O)OC(C)C)C (configuration not stated) | 115 | 116 | 104 | 111 | 111 | 108 | 96.3 | 89.8 | 88.8 | 96.3 | 85.1 | 95.4 | 94.6 | 91.3 | 99.3 | 103 | 89.4 | 94.5 | 85.2 | 81.4 | 86.6 | 94.7 | 105 | 101 | 100 | 108 | 88.7 | 92.3 | 87.8 | 102 | 92.8 | 93.4 | 106 |
| COc1cccc2c1C(=O)c1c(O)c3c(c(O)c1C2=O)C[C@@](O)(C(=O)CO)C[C@@H]3O[C@H]1C[C@H](N)[C@H](O)[C@H](C)O1 | 112 | 127 | 108 | 120 | 96.2 | 108 | 116 | 90.2 | 8.77 | 37.4 | 6.99 | 116 | 111 | 107 | 115 | 102 | 102 | 108 | 102 | 7.5 | 25.6 | 6.28 | 112 | 116 | 105 | 104 | 107 | 110 | 100 | 104 | 8.85 | 34.3 | 5.09 |
| O=C(O)c1cccnc1Nc1cccc(C(F)(F)F)c1 | 112 | 124 | 129 | 104 | 122 | 131 | 150 | 142 | 132 | 129 | 135 | 105 | 116 | 108 | 116 | 110 | 128 | 124 | 122 | 125 | 132 | 120 | 97.1 | 101 | 101 | 114 | 114 | 117 | 120 | 111 | 115 | 120 | 106 |
| Cc1cc2c(C(N)=O)cccc2n1-c1nc2c(c(NCc3ccccc3)n1)COCC2 | 117 | 124 | 101 | 108 | 114 | 103 | 85.5 | 25 | 4.02 | 3.66 | 3.75 | 89.3 | 106 | 92.9 | 87.8 | 99.8 | 98 | 81.6 | 44.1 | 3.08 | 3.4 | 3.91 | 92.9 | 90.3 | 92.4 | 92.8 | 91.2 | 100 | 73.3 | 20.6 | 3.21 | 2.75 | 2.84 |

Reference: the supplement of paper PMC11451515
